Results from patent US7608619B2, “Substituted oxazole compounds with analgesic activity” (Gruenenthal GmbH, priority 2005, dated 2009).

Biological target: T1, human μ-opiate receptor (Homo sapiens, UniProt P35372)
T1 construct: purchased Nen company, Zaventem, Belgium RB-HOM; host or cells: CHO-K1 cells (membrane preparation)
Test: Affinity for the human μ-opiate receptor ([3H]-naloxone displacement, SPA, CHO-K1 membrane preparation)
Details: test substance 1 μmole/l; displacement of 1 nmole/l [3H]-naloxone; percentage inhibition of the specific binding; read-out: μ-opioid receptor, % inhibition [1 μM]
Protocol: Method for Determining the Affinity for the Human μ-Opiate Receptor
The receptor affinity for the human μ-opiate receptor is determined in a homogeneous batch in microtiter plates. For this purpose dilution series of the substances to be tested are incubated for 90 minutes at room temperature with a receptor membrane preparation (15-40 μg protein/250 μl incubation batch) of CHO-K1 cells, which express the human μ-opiate receptor (RB-HOM receptor membrane preparation from the Nen company, Zaventem, Belgium), in the presence of 1 nmole/l of the radioactive ligand [^3H]-naloxone (NET719, Nen company, Zaventem, Belgium) and 1 mg WGA-SPA beads (wheat germ agglutinin SPA beads from Amersham/Pharmacia, Freiburg, Germany) in a total volume of 250 μl. 50 mmole/l of Tris-HCl supplemented with 0.05% sodium azide and with 0.06% bovine serum albumin is used as incubation buffer. In order to determine the non-specific binding, 25 μmole/l of naloxone is additionally added. After the end of the 90 minutes' incubation time the microtiter plates are centrifuged for 20 minutes at 1000 g and the radioactivity is measured in a beta counter (Microbeta-Trilux, PerkinElmer Wallac, Freiburg, Germany). The percentage displacement of the radioactive ligand from its binding to the human μ-opiate receptor at a concentration of the test substances of 1 μmole/l is determined and is given as percentage inhibition of the specific binding.

T1 sequence (P35372 whole entry): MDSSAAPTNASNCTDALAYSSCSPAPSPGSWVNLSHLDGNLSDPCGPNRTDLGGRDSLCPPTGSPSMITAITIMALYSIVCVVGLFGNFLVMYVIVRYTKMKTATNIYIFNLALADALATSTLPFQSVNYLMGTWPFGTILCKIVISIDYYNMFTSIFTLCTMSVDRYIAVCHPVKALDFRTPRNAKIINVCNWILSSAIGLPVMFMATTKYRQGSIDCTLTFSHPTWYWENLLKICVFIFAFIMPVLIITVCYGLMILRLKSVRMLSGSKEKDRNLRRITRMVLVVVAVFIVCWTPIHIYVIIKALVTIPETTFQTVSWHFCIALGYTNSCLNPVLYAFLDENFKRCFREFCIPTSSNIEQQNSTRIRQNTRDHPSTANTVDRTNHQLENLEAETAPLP

Going from `CCN(CC)C(CC1CCC(C(c2ccc(F)cc2)N(C)C)CC1)c1nc(Cc2ccccc2)c(N2CCN(Cc3ccccc3)CC2)o1` (centres unmarked) [compound 68, (1-[4-benzyl-5-(4-benzyl-piperazin-1-yl)-oxazol-2-yl]-2-{4-[dimethylamino-(4-fluorophenyl)-methyl]-cyclohexyl}-ethyl)-diethylamine] to `CCN(CC)C(CC1CCC(C(c2cccs2)N(C)C)CC1)c1nc(Cc2ccccc2)c(N2CCN(Cc3ccccc3)CC2)o1` (centres unmarked) [compound 78, {1-[4-benzyl-5-(4-benzyl-piperazin-1-yl)-oxazol-2-yl]-2-[4-(dimethylamino-thiophen-2-yl-methyl)-cyclohexyl]-ethyl}-diethylamine], the inhibition at 1 µM rises from 60% to 100%.

Compared with `CCN(CC)C(CC1CCC(C(c2ccc(F)cc2)N(C)C)CC1)c1nc(Cc2ccccc2)c(N2CCC(C)CC2)o1` (centres unmarked) [compound 69, (1-[4-benzyl-5-(4-methylpiperidin-1-yl)-oxazol-2-yl]-2-{4-[dimethylamino-(4-fluorophenyl)-methyl]-cyclohexyl}-ethyl)-diethylamine], `CCN(CC)C(CC1CCC(C(c2cccs2)N(C)C)CC1)c1nc(Cc2ccccc2)c(N2CCC(Cc3ccccc3)CC2)o1` (centres unmarked) [compound 77, {1-[4-benzyl-5-(4-benzyl-piperidin-1-yl)-oxazol-2-yl]-2-[4-(dimethylamino-thiophen-2-yl-methyl)-cyclohexyl]-ethyl}-diethylamine] is higher in inhibition at 1 µM: 82% for the first, 91% for the second.

Compared with `CCN(CC)C(CC1CCC(C(c2ccc(F)cc2)N(C)C)CC1)c1nc(Cc2ccccc2)c(N(C)Cc2ccccc2)o1` (centres unmarked) [compound 70, Benzyl-[4-benzyl-2-(1-diethylamino-2-{4-[dimethylamino-(4-fluorophenyl)-methyl]-cyclohexyl}-ethyl)-oxazol-5-yl]-methylamine], `CN(Cc1ccccc1)c1oc(C(CC2CCC(C(c3cccs3)N(C)C)CC2)N2CCCCC2)nc1Cc1ccccc1` (centres unmarked) [compound 75, Benzyl-(4-benzyl-2-{2-[4-(dimethylaminothiophen-2-yl-methyl)-cyclohexyl]-1-piperidin-1-yl-ethyl}-oxazol-5-yl)-methylamine] is higher in inhibition at 1 µM: 60% for the first, 90% for the second.

First: CC1CCN(c2oc(C(CC3CCC(C(c4ccc(F)cc4)N(C)C)CC3)N3CCN(Cc4ccccc4)CC3)nc2Cc2ccccc2)CC1 (centres unmarked) [compound 71, [{4-[2-[4-benzyl-5-(4-methylpiperidin-1-yl)-oxazol-2-yl]-2-(4-benzyl-piperazin-1-yl)-ethyl]-cyclohexyl}-(4-fluorophenyl)-methyl]-dimethylamine]
Second: CN(C)C(c1cccs1)C1CCC(CC(c2nc(Cc3ccccc3)c(N3CCN(Cc4ccccc4)CC3)o2)N2CCCCC2)CC1 (centres unmarked) [compound 73, [(4-{2-[4-benzyl-5-(4-benzyl-piperazin-1-yl)-oxazol-2-yl]-2-piperidin-1-yl-ethyl}-cyclohexyl)-thiophen-2-yl-methyl]-dimethylamine]
The inhibition at 1 µM of the first is lower: 67% for the first, 94% for the second.

Going from `CN(C)C(c1cccs1)C1CCC(CC(c2nc(Cc3ccccc3)c(N3CCC(Cc4ccccc4)CC3)o2)N2CCCCC2)CC1` (centres unmarked) [compound 72, [(4-{2-[4-benzyl-5-(4-benzyl-piperidin-1-yl)-oxazol-2-yl]-2-piperidin-1-yl-ethyl}-cyclohexyl)-thiophen-2-yl-methyl]-dimethylamine] to `CN(C)C(c1cccs1)C1CCC(CC(c2nc(Cc3ccccc3)c(N3CCN(c4ccccc4)CC3)o2)N2CCCCC2)CC1` (centres unmarked) [compound 76, [(4-{2-[4-benzyl-5-(4-phenyl-piperazin-1-yl)-oxazol-2-yl]-2-piperidin-1-yl-ethyl}-cyclohexyl)-thiophen-2-yl-methyl]-dimethylamine], the inhibition at 1 µM rises from 69% to 94%.

`CC1CCN(c2oc(C(CC3CCC(C(c4cccs4)N(C)C)CC3)N3CCCCC3)nc2Cc2ccccc2)CC1` (centres unmarked) [compound 74, [(4-{2-[4-benzyl-5-(4-methylpiperidin-1-yl)-oxazol-2-yl]-2-piperidin-1-yl-ethyl}-cyclohexyl)-thiophen-2-yl-methyl]-dimethylamine] showed an inhibition at 1 µM of 79%.
